Data as given in patent US11390621B2, “Chiral indole compounds and their use” (ARIAGEN, INC., priority 2019, dated 2022).

Tests used:
Type in all cases: in vitro ADME
[1] = Hepatocyte intrinsic clearance assay (metabolic stability), human hepatocytes; conditions: male, human, cryopreserved pooled hepatocytes, Human Hepatocytes, 1 μM test compound
How it was run: (§1)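 Cryopreserved pooled hepatocytes (1×10^6 cells/mL final) incubated with 1 μM compound at 37 °C, 5% CO2; samples at 0–120 min quenched in acetonitrile, analysed by LC-MS in duplicate. t1/2 and CLint from ln(% remaining) vs time slope; CLH via well-stirred liver model (fu=1) and EH derived from it.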

[2] = tested on: human hepatocytes; assay: as above; conditions: for EH (hepatic extraction ratio): well stirred liver model, fu=1
How it was run: as §1

[3] = Hepatocyte intrinsic clearance assay (metabolic stability), rat hepatocytes; conditions: rat, cryopreserved hepatocytes, Rat Hepatocytes, 1 μM test compound
How it was run: as §1

[4] = tested on: rat hepatocytes; assay: as above; conditions: for EH (hepatic extraction ratio): well stirred liver model, fu=1
How it was run: as §1

[5] = CYP profiling: turnover in human liver microsomes, 30 min, no inhibitor; design: % Compound Metabolized at 30 min, No Inhibitor: concentration or dose not given beside the values; conditions: HLMs
Experimental: (§2) In order to investigate the contributions of CYP1A2 and CYP3A4 to the metabolism of the compounds of the present disclosure, human liver microsomes were incubated with the test compounds for 30 minutes in the presence of selective chemical inhibitors furafylline (1A2) and ketoconazole (3A4).

[6] = molecular target: T1, CYP1A2 (Homo sapiens, UniProt P05177); assay: CYP profiling: human liver microsomes with CYP1A2 inhibitor furafylline; design: % Compound Metabolized at 30 min, CYP1A2 Inhibitor: concentration or dose not given beside the values; conditions: HLMs; for % Inhibition Relative to Negative Control, 1A2: 30 min
T1 construct: from tissue; host or cells: human liver microsomes
T1 sequence (P05177 1-516): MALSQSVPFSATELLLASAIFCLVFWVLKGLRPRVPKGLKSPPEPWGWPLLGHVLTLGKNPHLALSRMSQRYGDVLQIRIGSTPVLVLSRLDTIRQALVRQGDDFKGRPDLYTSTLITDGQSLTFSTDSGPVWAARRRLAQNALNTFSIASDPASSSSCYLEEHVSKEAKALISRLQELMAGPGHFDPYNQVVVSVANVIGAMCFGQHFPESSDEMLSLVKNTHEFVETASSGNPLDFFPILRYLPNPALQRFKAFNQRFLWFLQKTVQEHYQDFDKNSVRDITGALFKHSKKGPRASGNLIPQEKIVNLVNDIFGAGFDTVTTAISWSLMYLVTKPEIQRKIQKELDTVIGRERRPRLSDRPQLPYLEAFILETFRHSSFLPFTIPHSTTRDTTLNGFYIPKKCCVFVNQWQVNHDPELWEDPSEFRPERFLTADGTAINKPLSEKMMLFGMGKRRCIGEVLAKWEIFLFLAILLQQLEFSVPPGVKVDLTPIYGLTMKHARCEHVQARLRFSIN
Experimental: as §2

[7] = molecular target: T2, CYP3A4 (Homo sapiens, UniProt P08684); assay: CYP profiling: human liver microsomes with CYP3A4 inhibitor ketoconazole; design: % Compound Metabolized at 30 min, CYP3A4 Inhibitor: concentration or dose not given beside the values; conditions: HLMs; for % Inhibition Relative to Negative Control, 3A4: 30 min
T2 construct: from tissue; host or cells: human liver microsomes
Experimental: as §2

T2 sequence (P08684 whole entry): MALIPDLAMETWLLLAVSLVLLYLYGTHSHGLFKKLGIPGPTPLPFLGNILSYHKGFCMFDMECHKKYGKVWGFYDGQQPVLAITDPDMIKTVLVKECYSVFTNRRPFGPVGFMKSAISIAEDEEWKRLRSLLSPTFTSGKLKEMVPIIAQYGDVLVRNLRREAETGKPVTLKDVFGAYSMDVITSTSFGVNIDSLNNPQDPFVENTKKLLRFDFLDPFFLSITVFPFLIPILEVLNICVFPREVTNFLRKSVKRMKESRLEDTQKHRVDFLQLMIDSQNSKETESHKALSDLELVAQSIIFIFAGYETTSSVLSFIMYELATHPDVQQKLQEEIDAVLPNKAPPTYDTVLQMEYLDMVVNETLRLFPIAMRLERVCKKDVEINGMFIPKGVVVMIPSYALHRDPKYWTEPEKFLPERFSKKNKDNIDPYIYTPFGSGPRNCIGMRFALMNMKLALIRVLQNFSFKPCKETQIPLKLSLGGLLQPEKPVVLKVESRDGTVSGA

| Structure (SMILES) | half-life at 1 μM [1] | hepatocyte CLint at 1 μM [1] | CLint ([2]; Human Hepatocytes, 1 μM test compound) | EH (hepatic extraction ratio) ([2]; Human Hepatocytes) | CLint lower than that of ARI-164 (fold improvement) ([2]; human hepatocytes) | half-life at 1 μM [3] | hepatocyte CLint at 1 μM [3] | CLint ([4]; Rat Hepatocytes, 1 μM test compound) | EH (hepatic extraction ratio) ([4]; Rat Hepatocytes) | CLint lower than that of ARI-164 (fold) ([4]; rat hepatocytes) | % Compound Metabolized at 30 min, No Inhibitor [5] | metabolic turnover (in words) [5] | % Compound Metabolized at 30 min, CYP1A2 Inhibitor [6] | % Inhibition Relative to Negative Control, 1A2 [6] | % Compound Metabolized at 30 min, CYP3A4 Inhibitor [7] | % Inhibition Relative to Negative Control, 3A4 [7] |
| --- | --- | --- | --- | --- | --- | --- | --- | --- | --- | --- | --- | --- | --- | --- | --- | --- |
| CC[C@H](N)c1csc(C(=O)c2c[nH]c3cc(F)ccc23)n1 [ARI-186, (S)-(4-(1-aminopropyl)thiazol-2-yl)(6-fluoro-1H-indol-3-yl)methanone] | 7.9 h | 1.5 µL/min/1e6 cells | 1.453 μL/min/10^6 cells | 8.7% | 10.8 × | 2.8 h | 4.1 µL/min/1e6 cells | 4.127 μL/min/10^6 cells | 21.6% | 1.8 × | 13% | very low turnover | 10% | 23% | 12% | 8% |
| N[C@H](c1csc(C(=O)c2c[nH]c3cc(F)ccc23)n1)C(F)(F)F [ARI-223] | 1 h | 11.6 µL/min/1e6 cells |  | 23.7% |  | 0.5 h | 25.6 µL/min/1e6 cells |  | 63.1% |  | 79% | high turnover | 12% | 85% | 42% | 47% |
| N[C@@H](c1csc(C(=O)c2c[nH]c3ccccc23)n1)C(F)(F)F [ARI-229] | 2.3 h | 5.03 µL/min/1e6 cells |  | 11.4% |  | 1 h | 11.7 µL/min/1e6 cells |  | 43.9% |  | 0% |  | 0% | None | 0% | None |
